Test results published in publication PMC5554537 (Frontiers in Pharmacology, 2017).
Where two headings read alike, the source gives them in different places.

Key:
in vivo = details: NIH-III, mouse, ip
Experimental: SN30000, M14 and M18 dosing solutions were prepared fresh in normal saline, filtered through 0.45 μm Acrodisc filters (Pall Life Sciences, Port Washington, NY, United States), protected from light in amber vials, and used within 3 h. Doses are expressed as mg of free base equivalent for SN30000 and M14, and free acid in the case of M18. […] For evaluation of acute toxicity, mice were observed continuously for 3 h after dosing, and their activity rated on a lethargy score from 0 representing no change in activity to 5 representing animals that were moribund and required culling. For MTD studies, the animals were checked daily for clinical signs of toxicity and body weight change for 2 weeks. In some studies rectal temperature changes after dosing were measured using a BAT-12 digital microprobe thermometer (Physitemp Instruments, Clifton, NJ, United States) at the times specified in the figures. Blood samples were collected from mice at various times by cardiac puncture, seconds after cervical dislocation, into ice-cold tubes containing K2EDTA. These were placed on ice immediately after collection and centrifuged (3,000 g, 3 min) within 10 min to harvest plasma. Plasma and tissues were rapidly frozen in liquid nitrogen before storage at -80°C for subsequent bioanalysis.
Concentration-time data were analyzed by non-compartmental analysis using Phoenix WinNonlin (ver 6.4, Build 6.4.0768 Pharsight, United States); all AUC values were extrapolated to infinity using the linear trapezoidal rule. A compartmental model for plasma PK after dosing with SN30000 or M14 was fitted using Phoenix NLME v1.3 with random effects on the metabolite volumes of distribution, and temperature effects based on the observed body temperature at the last measurement time. Temperature effects were added or removed until there was no significant change in the log likelihood. Model fits were further assessed by visual inspection of the residuals and predicted PK.

[1] = Stability in mouse liver homogenates (QC samples); assay type: physicochemical
Source text: using octa-deuterated internal standards of SN30000, M13 and M14 synthesised as previously reported (Wang et al., 2012). Intra- and inter-day precision (expressed as relative standard deviation (RSD) and accuracy (expressed as percentage of the nominal value) were deter mined by analy sis of replicates (n=6) of low and high quality control (QC) samples on three different days. The lower limit of quantitation (LLOQ) was defined as the lowest concentration providing RSD and accuracy < 20%. Recovery from plasma and liver ho mogenates was tested at the three QC levels. The recoveries were evaluated by comparing extracted samples with blank extracted solutions spiked with analytes of the same amount.
Matrix effects, defined as the change in response due to the presence of other substances in the samples, were evaluated by comparing the analytes diluted into the blank plasma or liver extracted solution with that of the same stock solutions diluted in water. Three different concentration levels (low, medium and high QC) were evaluated by analysing three samples at each level. Accuracy , precision, recovery and matrix effects were all acceptable over the concentration ranges evaluated for plas ma (Supplementary Table 1) and for liver homogenates (Supplementary Table 2).
Stability of the analytes in mouse plasma (Supplementary Table 3) or liver homogenate (Supplementary Table 4) was confirmed during holding of QC samples on ice for up to 2 h under nor mal laboratory lighting, although there was a trend towards loss of SN30000 in plasma samples held in clear microcentrifuge tubes which may reflect the known photosensitivity of the compound (Gu et al., 2014). This loss was reduced by use of red microcentrifuge tubes, and eliminated by black tubes. Stability in both matrices was also confir med for one month storage at -80°C and for three freeze-thaw cycles, while MeOH-deproteinised samples w ere stable for 12 h at 4°C in the autosampler (Supplementary Tables

HCT116 cells = assay: Antiproliferative potency, 4 h exposure, sulforhodamine B; assay type: cell-based, human; details: for IC50: Homo sapiens, HCT-116, 4 h, HCT116, 4 h exposure
Experimental: Antiproliferative potency of SN30000 and its major metabolites following 4 h exposure of HCT116 cells under aerobic or anoxic conditions. […]
a HCT116 cells, originally from ATCC, were authenticated by short tandem repeat profiling and confir med mycoplasma-free by PCR/ELISA assay . Cells were passaged in Alpha MEM with 5% foetal bovine serum without antibiotics. In vitro cytotoxicity of SN30000 and metabolites was measured as the inhibition of cell proliferation as described previously (Gu et al., 2009). Briefly, cells were exposed to compounds for 4 h under aerobic (20% O2) or anoxic (Bactron anaerobic chamber) conditions and then grown in an aerobic 5% CO 2 incubator for 5 d before staining with sulforhodamine B. IC50 values were deter mined by interpolation (nonlinear regression to the standard Hill equation) as the drug concentration reducing staining to 50% of controls on the same plate. b Values are mean ± SEM for the numb er of independent experiments shown in parentheses.

[2] = liver homogenate deproteinised in 3 vol MeOH, 12 h autosampler at 4°C, nominal SN30000 0.5, M14 0.25, M13 0.1 µM
[3] = liver homogenate deproteinised in 3 vol MeOH, 12 h autosampler at 4°C, nominal SN30000 5, M14 2.5, M13 1 µM
[4] = liver homogenate deproteinised in 3 vol MeOH, 12 h autosampler at 4°C, nominal SN30000 50, M14 25, M13 10 µM
[5] = liver homogenate, 1 month at -80°C, nominal SN30000 0.5, M14 0.25, M13 0.1 µM
[6] = liver homogenate, 1 month at -80°C, nominal SN30000 5, M14 2.5, M13 1 µM
[7] = liver homogenate, 1 month at -80°C, nominal SN30000 50, M14 25, M13 10 µM
[8] = liver homogenate, 1h on ice, clear tubes, nominal SN30000 0.5, M14 0.25, M13 0.1 µM
[9] = liver homogenate, 1h on ice, clear tubes, nominal SN30000 5, M14 2.5, M13 1 µM
[10] = liver homogenate, 1h on ice, clear tubes, nominal SN30000 50, M14 25, M13 10 µM
[11] = liver homogenate, 2h on ice, nominal SN30000 0.5, M14 0.25, M13 0.1 µM
[12] = liver homogenate, 2h on ice, nominal SN30000 5, M14 2.5, M13 1 µM
[13] = liver homogenate, 2h on ice, nominal SN30000 50, M14 25, M13 10 µM
[14] = liver homogenate, three freeze-thaw cycles, nominal SN30000 0.5, M14 0.25, M13 0.1 µM
[15] = liver homogenate, three freeze-thaw cycles, nominal SN30000 5, M14 2.5, M13 1 µM
[16] = liver homogenate, three freeze-thaw cycles, nominal SN30000 50, M14 25, M13 10 µM
[17] = aerobic (20% O2), read-out: IC50

c1c2c(cc3nc(CCCN4CCOCC4)nnc13)CCC2 [M13]
AUC (in vivo; plasma, 1.86 mg/kg): 0.0029 µM·h | Cmax (in vivo; plasma, 1.86 mg/kg): 0.008 µM | half-life (in vivo; plasma, 1.86 mg/kg): 19.8 min | AUC (in vivo; plasma, 18.6 mg/kg): 0.079 µM·h | Cmax (in vivo; plasma, 18.6 mg/kg): 0.202 µM | half-life (in vivo; plasma, 18.6 mg/kg): 39.1 min | AUC (in vivo; plasma, 78.3 mg/kg): 2.64 µM·h | Cmax (in vivo; plasma, 78.3 mg/kg): 3.85 µM | half-life (in vivo; plasma, 78.3 mg/kg): 31.8 min | AUC (in vivo; plasma, 92.8 mg/kg): 5.43 µM·h | Cmax (in vivo; plasma, 92.8 mg/kg): 6.63 µM | half-life (in vivo; plasma, 92.8 mg/kg): 26.2 min | AUC (in vivo; plasma, 186 mg/kg): 14.3 µM·h | half-life (in vivo; plasma, 186 mg/kg): 53.3 min | Bias [1, 2]: 7.07% | Measured conc [1, 2]: 0.11 µM | Bias [1, 3]: 10.75% | Measured conc [1, 3]: 1.11 µM | Bias [1, 4]: 6.40% | Measured conc [1, 4]: 10.64 µM | Measured conc [1, 5]: 0.11 µM | Bias [1, 6]: 4.04% | Measured conc [1, 6]: 1.03 µM | Bias [1, 7]: 5.05% | Measured conc [1, 7]: 9.12 µM | Bias [1, 8]: 11.64% | Measured conc [1, 8]: 0.11 µM | Bias [1, 9]: 10.33% | Measured conc [1, 9]: 1.10 µM | Bias [1, 10]: 7.77% | Measured conc [1, 10]: 10.78 µM | Bias [1, 11]: 2.48% | Measured conc [1, 11]: 0.10 µM | Bias [1, 12]: 3.25% | Measured conc [1, 12]: 1.03 µM | Bias [1, 13]: 1.11% | Measured conc [1, 13]: 10.11 µM | Bias [1, 14]: -7.15% | Measured conc [1, 14]: 0.093 µM | Bias [1, 15]: -4.26% | Measured conc [1, 15]: 0.96 µM | Bias [1, 16]: 5.64% | Measured conc [1, 16]: 10.56 µM

[O-][n+]1nc(CCCN2CCOCC2)nc2cc3c(cc21)CCC3 [M14]
IC50 (HCT116 cells; [17]): 600 ± 60 µM | IC50 (HCT116 cells; anoxic, read-out: IC50): 900 ± 100 µM | AUC (in vivo; in vivo, 1.86 mg/kg): 0.02 µM·h | Cmax (in vivo; in vivo, 1.86 mg/kg): 0.053 µM | half-life (in vivo; in vivo, 1.86 mg/kg): 29.5 min | AUC (in vivo; in vivo, 18.6 mg/kg): 0.38 µM·h | Cmax (in vivo; in vivo, 18.6 mg/kg): 1.11 µM | half-life (in vivo; in vivo, 18.6 mg/kg): 32.5 min | AUC (in vivo; in vivo, 78.3 mg/kg): 7.52 µM·h | Cmax (in vivo; in vivo, 78.3 mg/kg): 13.3 µM | half-life (in vivo; in vivo, 78.3 mg/kg): 20.1 min | AUC (in vivo; in vivo, 92.8 mg/kg): 10.8 µM·h | Cmax (in vivo; in vivo, 92.8 mg/kg): 16.8 µM | half-life (in vivo; in vivo, 92.8 mg/kg): 22.9 min | AUC (in vivo; in vivo, 186 mg/kg): 24.6 µM·h | Cmax (in vivo; in vivo, 186 mg/kg): 23 µM | half-life (in vivo; in vivo, 186 mg/kg): 58.1 min | Bias [1, 2]: 3.86% | Measured conc [1, 2]: 0.26 µM | Bias [1, 3]: 5.73% | Measured conc [1, 3]: 2.64 µM | Bias [1, 4]: 5.22% | Measured conc [1, 4]: 26.30 µM | Bias [1, 5]: 1.76% | Measured conc [1, 5]: 0.25 µM | Bias [1, 6]: 4.04% | Measured conc [1, 6]: 2.35 µM | Bias [1, 7]: 5.13% | Measured conc [1, 7]: 23.54 µM | Bias [1, 8]: 5.21% | Measured conc [1, 8]: 0.26 µM | Bias [1, 9]: 1.78% | Measured conc [1, 9]: 2.54 µM | Bias [1, 10]: 3.05% | Measured conc [1, 10]: 25.76 µM | Bias [1, 11]: 8.20% | Measured conc [1, 11]: 0.27 µM | Bias [1, 12]: 9.32% | Measured conc [1, 12]: 2.73 µM | Bias [1, 13]: 0.75% | Measured conc [1, 13]: 25.19 µM | Bias [1, 14]: -4.84% | Measured conc [1, 14]: 0.24 µM | Bias [1, 15]: -5.62% | Measured conc [1, 15]: 2.36 µM | Bias [1, 16]: 5.39% | Measured conc [1, 16]: 26.35 µM

O=C(O)CCc1nc2cc3c(cc2[n+]([O-])n1)CCC3 [M18]
IC50 (HCT116 cells; [17]): > 1670 µM | IC50 (HCT116 cells; anoxic, read-out: IC50): > 1670 µM | Potency relative to SN30000 (fold less potent) (HCT116 cells; anoxic HCT116 cultures): at least 1000 fold | AUC (in vivo; in vivo, 1.86 mg/kg): 1.06 µM·h | Cmax (in vivo; in vivo, 1.86 mg/kg): 0.65 µM | half-life (in vivo; in vivo, 1.86 mg/kg): 102 min | AUC (in vivo; in vivo, 18.6 mg/kg): 10.8 µM·h | Cmax (in vivo; in vivo, 18.6 mg/kg): 5.44 µM | half-life (in vivo; in vivo, 18.6 mg/kg): 220 min | AUC (in vivo; in vivo, 78.3 mg/kg): 51.5 µM·h | Cmax (in vivo; in vivo, 78.3 mg/kg): 23.4 µM | half-life (in vivo; in vivo, 78.3 mg/kg): 35.5 min | AUC (in vivo; in vivo, 92.8 mg/kg): 116 µM·h | Cmax (in vivo; in vivo, 92.8 mg/kg): 52.8 µM | half-life (in vivo; in vivo, 92.8 mg/kg): 145 min | AUC (in vivo; in vivo, 186 mg/kg): 204 µM·h | Cmax (in vivo; in vivo, 186 mg/kg): 79.5 µM | half-life (in vivo; in vivo, 186 mg/kg): 1210 min

[O-][n+]1nc(CCCN2CCOCC2)[n+]([O-])c2cc3c(cc21)CCC3 [SN30000, 3-(3-Morpholinopropyl)-7,8-dihydro-6H-indeno[5,6-e][1,2,4]triazine 1,4-dioxide]
IC50 (HCT116 cells; aerobic (20% O2)): 148 ± 20 µM | IC50 (HCT116 cells; anoxic): 1.7 ± 0.4 µM | bioavailability (in vivo; in vivo): ~30% | AUC (in vivo; in vivo, 1.86 mg/kg): 0.17 µM·h | Cmax (in vivo; in vivo, 1.86 mg/kg): 0.59 µM | half-life (in vivo; in vivo, 1.86 mg/kg): 20.8 min | AUC (in vivo; in vivo, 18.6 mg/kg): 2.1 µM·h | Cmax (in vivo; in vivo, 18.6 mg/kg): 6.8 µM | half-life (in vivo; in vivo, 18.6 mg/kg): 25 min | bioavailability (in vivo; in vivo, 78 mg/kg): ~70% | AUC (in vivo; in vivo, 78.3 mg/kg): 31.5 µM·h | Cmax (in vivo; in vivo, 78.3 mg/kg): 60.8 µM | half-life (in vivo; in vivo, 78.3 mg/kg): 16.1 min | AUC (in vivo; in vivo, 92.8 mg/kg): 49.2 µM·h | Cmax (in vivo; in vivo, 92.8 mg/kg): 77.9 µM | half-life (in vivo; in vivo, 92.8 mg/kg): 19.7 min | AUC (in vivo; in vivo, 186 mg/kg): 155 µM·h | Cmax (in vivo; in vivo, 186 mg/kg): 229 µM | half-life (in vivo; in vivo, 186 mg/kg): 42.5 min | Bias [1, 2]: 3.36% | Measured conc [1, 2]: 0.52 µM | Bias [1, 3]: 2.86% | Measured conc [1, 3]: 5.14 µM | Bias [1, 4]: 6.75% | Measured conc [1, 4]: 53.37 µM | Bias [1, 5]: 1.98% | Measured conc [1, 5]: 0.52 µM | Bias [1, 6]: 4.40% | Measured conc [1, 6]: 4.77 µM | Bias [1, 7]: 4.71% | Measured conc [1, 7]: 47.06 µM | Bias [1, 8]: 2.46% | Measured conc [1, 8]: 0.51 µM | Bias [1, 9]: 4.72% | Measured conc [1, 9]: 5.24 µM | Bias [1, 10]: 6.87% | Measured conc [1, 10]: 53.43 µM | Bias [1, 11]: -3.26% | Measured conc [1, 11]: 0.48 µM | Bias [1, 12]: 2.72% | Measured conc [1, 12]: 5.14 µM | Bias [1, 13]: 1.20% | Measured conc [1, 13]: 50.60 µM | Bias [1, 14]: -10.74% | Measured conc [1, 14]: 0.45 µM | Bias [1, 15]: -8.29% | Measured conc [1, 15]: 4.59 µM | Bias [1, 16]: 4.78% | Measured conc [1, 16]: 52.39 µM
